The values that follow come from US10099993B2, “Metabotropic glutamate receptor positive allosteric modulators (PAMS) and uses thereof” (Sanford-Burnham Medical Research Institute, priority 2014, dated 2018).

In general, EC50 refers to the concentration giving half of the maximal effect.

One experiment addresses mGlu3 (Rattus norvegicus (Rat), UniProt P31422). The experiment is described as follows: mGlu3 GIRK thallium flux assay.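 For all read-outs here: kinetic fluorescence slope read shortly after thallium plus agonist addition, scaled between vehicle and maximal agonist control.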 As to conditions: for EC50: read-out: mGlu3 PAM EC50, PAM mode, test compound, then EC20 glutamate […] later in the presence of thallium, mean ± SEM; for Emax: read-out: mGlu3 PAM Max.
For the next experiment, the target named is mGlu2 (Rattus norvegicus (Rat), UniProt P31421). Nature of the experiment: mGlu2 GIRK thallium flux assay.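 For all read-outs here: Cell-based assay, rate of fluorescence rise right after thallium plus agonist addition read on a kinetic imaging plate reader, normalized to vehicle and maximal agonist control.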 The following applies: for EC50: read-out: mGlu2 PAM EC50, PAM mode, test compound, then EC20 glutamate […] later in the presence of thallium, mean ± SEM, at least three experiments; for Emax: read-out: mGlu2 PAM Max.
Chain of mGlu2 (P31421 19-872): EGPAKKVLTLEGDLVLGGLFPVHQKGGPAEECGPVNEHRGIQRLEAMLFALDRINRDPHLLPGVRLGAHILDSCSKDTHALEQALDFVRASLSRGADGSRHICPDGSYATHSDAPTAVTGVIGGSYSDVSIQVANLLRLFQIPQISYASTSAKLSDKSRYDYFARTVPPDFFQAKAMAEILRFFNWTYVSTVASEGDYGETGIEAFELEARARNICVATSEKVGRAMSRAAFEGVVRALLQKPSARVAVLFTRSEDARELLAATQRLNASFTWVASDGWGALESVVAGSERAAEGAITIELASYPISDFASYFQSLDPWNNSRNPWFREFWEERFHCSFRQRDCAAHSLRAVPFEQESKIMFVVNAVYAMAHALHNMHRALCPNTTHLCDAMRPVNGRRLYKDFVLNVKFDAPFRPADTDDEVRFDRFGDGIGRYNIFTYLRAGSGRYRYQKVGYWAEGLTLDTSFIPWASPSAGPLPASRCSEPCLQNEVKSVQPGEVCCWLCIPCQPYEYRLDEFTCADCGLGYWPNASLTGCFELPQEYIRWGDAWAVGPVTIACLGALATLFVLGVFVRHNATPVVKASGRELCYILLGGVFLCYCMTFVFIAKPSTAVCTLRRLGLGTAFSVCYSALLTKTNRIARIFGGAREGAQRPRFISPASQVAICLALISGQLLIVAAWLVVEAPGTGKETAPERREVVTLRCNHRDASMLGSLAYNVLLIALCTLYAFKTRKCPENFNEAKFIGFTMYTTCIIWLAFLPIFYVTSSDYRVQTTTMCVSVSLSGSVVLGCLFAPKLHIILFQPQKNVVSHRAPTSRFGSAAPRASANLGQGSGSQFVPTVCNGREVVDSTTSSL

Chain of mGlu3 (P31422 23-879): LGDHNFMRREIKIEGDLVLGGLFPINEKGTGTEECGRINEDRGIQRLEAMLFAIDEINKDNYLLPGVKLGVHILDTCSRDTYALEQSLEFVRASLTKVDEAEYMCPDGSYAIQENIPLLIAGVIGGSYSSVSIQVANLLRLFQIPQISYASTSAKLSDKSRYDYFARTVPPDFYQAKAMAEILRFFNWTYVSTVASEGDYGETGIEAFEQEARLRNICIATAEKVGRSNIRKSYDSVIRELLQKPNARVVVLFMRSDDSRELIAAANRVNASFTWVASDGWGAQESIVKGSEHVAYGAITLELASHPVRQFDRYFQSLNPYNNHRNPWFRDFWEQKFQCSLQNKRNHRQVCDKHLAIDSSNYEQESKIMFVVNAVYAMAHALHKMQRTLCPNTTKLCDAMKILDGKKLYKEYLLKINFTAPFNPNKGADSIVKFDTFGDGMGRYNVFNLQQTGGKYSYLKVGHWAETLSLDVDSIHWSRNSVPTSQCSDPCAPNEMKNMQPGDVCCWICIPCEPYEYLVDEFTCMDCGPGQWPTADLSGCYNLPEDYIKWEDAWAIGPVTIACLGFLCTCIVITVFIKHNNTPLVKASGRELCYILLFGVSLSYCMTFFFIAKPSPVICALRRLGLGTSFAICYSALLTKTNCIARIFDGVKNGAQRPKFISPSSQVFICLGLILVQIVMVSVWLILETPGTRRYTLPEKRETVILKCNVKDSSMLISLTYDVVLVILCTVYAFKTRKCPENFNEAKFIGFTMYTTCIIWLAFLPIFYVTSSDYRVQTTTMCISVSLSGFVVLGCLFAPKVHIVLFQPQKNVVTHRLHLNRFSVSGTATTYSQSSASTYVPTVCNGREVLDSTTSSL

Consider `COc1ccc(B(O)O)cc1OCCCCOc1ccc(C(=O)CC(C)(C)C)c(O)c1C` [compound 95, (3-(4-(4-(3,3-Dimethylbutanoyl)-3-hydroxy-2-methylphenoxy)butoxy)-4-methoxyphenyl)boronic acid], for which, on mGlu3, the concentration for a half-maximal effect (EC50) was > 30 µM and the Emax was 26.2 ± 11.7%. For the same compound, on mGlu2, the half-maximal effective concentration (EC50) was determined as 3.01 ± 0.988 µM and the Emax was 27.5 ± 2.7%.
With `COC(=O)CCc1cc(OCCCCOc2ccc(C(=O)CC(C)C)c(O)c2C)ccc1O` [compound 85], the values for the EC50 at mGlu3 and on mGlu2 were > 30 µM and > 10 µM, respectively.
As to `CC(=O)c1ccc(OCCCCOc2ccc(F)c(C(=O)O)c2)c(C)c1O` [Compound 55, 5-(4-(4-Acetyl-3-hydroxy-2-methylphenoxy)butoxy)-2-fluorobenzoic acid], the half-maximal effective concentration (EC50) at mGlu3 is > 30 µM.
Regarding `Cc1c(OCCCCOc2ccc(C#N)cc2)ccc(C(=O)CC2CCCC2)c1C` [compound 76], the 50% effective concentration (EC50) on mGlu3 and at mGlu2 was > 30 µM in each case.
For the compound `Cc1c(OCc2cccc(-c3cccc(C(=O)O)c3)c2)ccc(C(=O)CC(C)C)c1O` [compound 137, 3′-((3-Hydroxy-2-methyl-4-(3-methylbutanoyl)phenoxy)methyl)-[1,1′-biphenyl]-3-carboxylic acid], on mGlu3, the EC50 amounted to 0.642 ± 0.151 µM and the Emax is 76.8 ± 8%. For the same compound, at mGlu2, the EC50 amounted to 0.181 ± 0.028 µM and the Emax was determined as 85.8 ± 3.7%.
As for `Cc1c(OCc2ncc(-c3cccc(C(=O)O)c3)s2)ccc(C(=O)CC(C)(C)C)c1O` [compound 161, 3-(2-((4-(3,3-Dimethylbutanoyl)-3-hydroxy-2-methylphenoxy)methyl)thiazol-5-yl)benzoic acid], the concentration for a half-maximal effect (EC50) amounted to 3.19 ± 0.068 µM on mGlu3 and 1.878 ± 0.017 µM on mGlu2. The Emax was 114 ± 3.9% at mGlu3 and 98.2 ± 5.2% at mGlu2.
With `Cc1c(OCc2cccc(COc3ccc(C#N)cc3)c2)ccc(C(=O)CC2CCCC2)c1C` [compound 154], the concentration giving a half-maximal response (EC50) on mGlu3 and on mGlu2 was > 30 µM each time.
As to `Cc1c(OCc2cccc(-c3cccc(C(=O)O)c3)c2)ccc(C(=O)CC(C)(C)C)c1O` [compound 127, 3′-((4-(3,3-Dimethylbutanoyl)-3-hydroxy-2-methylphenoxy)methyl)-[1,1′-biphenyl]-3-carboxylic acid], the figures for the half-maximal effective concentration (EC50) on mGlu3 and on mGlu2 were 0.343 ± 0.04 µM and 0.219 ± 0.043 µM, respectively. Further, the Emax amounted to 104 ± 2.4% on mGlu3 and 91.1 ± 2.6% at mGlu2.
For `Cc1c(OCc2cccc(COc3ccc(C(=O)O)cc3)c2)ccc(C(=O)CC2CCCC2)c1C` [compound 124], the EC50 on mGlu3 and at mGlu2 was > 30 µM each time.
On to `Cc1c(OCc2cc(-c3cccc(C(=O)O)c3)cs2)ccc(C(=O)CC(C)(C)C)c1O` [compound 162, 3-(5-((4-(3,3-Dimethylbutanoyl)-3-hydroxy-2-methylphenoxy)methyl)thiophen-3-yl)benzoic acid], for which the Emax at mGlu3 was 106 ± 6.4%; on mGlu2, 102 ± 3.5%.
As for `Cc1c(OCc2cccc(-c3cnccc3C(=O)O)c2)ccc(C(=O)CC(C)(C)C)c1O` [Compound 180, 3-(3-((4-(3,3-Dimethylbutanoyl)-3-hydroxy-2-methylphenoxy)methyl)phenyl)isonicotinic acid], the EC50 was > 30 µM on mGlu3 and 1.46 ± 0.02 µM on mGlu2. The Emax stood at 30.6 ± 9.2% at mGlu3 and 88.4 ± 1.5% at mGlu2.
With `CC(=O)c1ccc(OCCCCOc2ccc(C(=O)O)cc2C)c(C)c1O` [Compound 56, 4-(4-(4-Acetyl-3-hydroxy-2-methylphenoxy)butoxy)-3-methylbenzoic acid], the EC50 at mGlu3 was > 30 µM.
The same measure, in the same setting: with `CCC(=O)c1ccc(OCCCCOc2ccc(C(=O)O)cc2OC)c(C)c1O` [Compound 57, 4-(4-(3-Hydroxy-2-methyl-4-propionylphenoxy)butoxy)-3-methoxybenzoic acid] the figure was > 30 µM; with `Cc1c(OCCCCOc2ccccc2C(=O)O)ccc(C(=O)CC(C)C)c1O` [Compound 28, 2-(4-(3-Hydroxy-2-methyl-4-(3-methylbutanoyl)phenoxy)butoxy)benzoic acid], > 30 µM.
Take `COc1ccc(C(=O)O)cc1OCCCCOc1ccc(C(C)=O)c(O)c1C` [Compound 53, 3-(4-(4-Acetyl-3-hydroxy-2-methylphenoxy)butoxy)-4-methoxybenzoic acid]: the EC50 at mGlu3 was > 30 µM.
As for `Cc1c(OCCCCOc2ccccc2C(=O)O)ccc(C(=O)CC2CCCC2)c1C` [Compound 27, 2-(4-(4-(2-Cyclopentylacetyl)-2,3-dimethylphenoxy)butoxy)benzoic acid], the EC50 on mGlu3 was > 30 µM.
On to `CCC(=O)c1ccc(OCCCCOc2ccc(C(=O)O)cc2C)c(C)c1O` [Compound 61, 4-(4-(3-Hydroxy-2-methyl-4-propionylphenoxy)butoxy)-3-methylbenzoic acid], for which the EC50 on mGlu3 was > 30 µM.
`COc1ccc(C(=O)O)cc1-c1cncc(COc2ccc(C(=O)CC(C)(C)C)c(O)c2C)c1` [compound 160, 3-(5-((4-(3,3-Dimethylbutanoyl)-3-hydroxy-2-methylphenoxy)methyl)pyridin-3-yl)-4-methoxybenzoic acid]: on mGlu3, the Emax is 110 ± 2.4%.
Take `Cc1c(OCCCCOc2ccc(C(=O)C(C)C)c(O)c2C)cccc1C(=O)O` [compound 64, 3-(4-(3-Hydroxy-4-isobutyryl-2-methylphenoxy)butoxy)-2-methylbenzoic acid]: the EC50 on mGlu3 was > 30 µM.
For `Cc1c(OCCCCOc2ccccc2C(=O)O)ccc(C(=O)CC2CCCC2)c1O` [Compound 29, 2-(4-(4-(2-Cyclopentylacetyl)-3-hydroxy-2-methylphenoxy)butoxy)benzoic acid], at mGlu3, the half-maximal effective concentration (EC50) was > 30 µM.
Consider `CC(=O)c1ccc(OCCCCOc2cccc(C(=O)O)c2C)c(C)c1O` [Compound 54, 3-(4-(4-Acetyl-3-hydroxy-2-methylphenoxy)butoxy)-2-methylbenzoic acid], for which, on mGlu3, the EC50 is > 30 µM.
Regarding `Cc1cc(C(=O)O)ccc1OCCCCOc1ccc(C(=O)C(C)C)c(O)c1C` [compound 66, 4-(4-(3-Hydroxy-4-isobutyryl-2-methylphenoxy)butoxy)-3-methylbenzoic acid], the EC50 at mGlu3 was > 30 µM.
On to `Cc1c(OCCCCOc2ccc(C(=O)O)c(Cl)c2)ccc(C(=O)CC(C)C)c1C` [Compound 30, 2-Chloro-4-(4-(2,3-dimethyl-4-(3-methylbutanoyl)phenoxy)butoxy)benzoic acid], for which the EC50 on mGlu3 is > 30 µM.
As for `COc1cc(C(=O)O)ccc1OCCCCOc1ccc(C(C)=O)c(O)c1C` [Compound 52, 4-(4-(4-Acetyl-3-hydroxy-2-methylphenoxy)butoxy)-3-methoxybenzoic acid], the EC50 on mGlu3 is > 30 µM.
Turning to `CCC(=O)c1ccc(OCCCCOc2cccc(C(=O)O)c2C)c(C)c1O` [Compound 59, 3-(4-(3-Hydroxy-2-methyl-4-propionylphenoxy)butoxy)-2-methylbenzoic acid], the concentration giving a half-maximal response (EC50) at mGlu3 is > 30 µM.
Consider `Cc1c(OCCCCOc2ccc(CCC(=O)O)c(O)c2)ccc(C(=O)CC(C)C)c1O` [Compound 5, reference compound], for which, on mGlu3, the EC50 was > 30 µM.
With `COc1cc(C(=O)O)ccc1OCCCCOc1ccc(C(=O)C(C)C)c(O)c1C` [Compound 62, 4-(4-(3-Hydroxy-4-isobutyryl-2-methylphenoxy)butoxy)-3-methoxybenzoic acid], the half-maximal effective concentration (EC50) on mGlu3 was > 30 µM.
